Source: paper PMC7794549, “A capsaicinoid-based soft drug, AG1529, for attenuating TRPV1-mediated histaminergic and inflammatory sensory neuron excitability” (Scientific Reports, 2021)

Legend:
Assay type in all cases: cell-based
[1] = biological target: T1, hTRPM8 (Homo sapiens, UniProt Q7Z2W7); assay: whole-cell patch-clamp, menthol-evoked currents in HEK293 cells; % block at […]
T1 construct: gene TRPM8

[2] = biological target: T2, hTRPA1 (Homo sapiens, UniProt O75762); assay: whole-cell patch-clamp, AITC-evoked currents in HEK293 cells; % inhibition at […]
T2 construct: gene TRPA1
T2 sequence (O75762 whole entry): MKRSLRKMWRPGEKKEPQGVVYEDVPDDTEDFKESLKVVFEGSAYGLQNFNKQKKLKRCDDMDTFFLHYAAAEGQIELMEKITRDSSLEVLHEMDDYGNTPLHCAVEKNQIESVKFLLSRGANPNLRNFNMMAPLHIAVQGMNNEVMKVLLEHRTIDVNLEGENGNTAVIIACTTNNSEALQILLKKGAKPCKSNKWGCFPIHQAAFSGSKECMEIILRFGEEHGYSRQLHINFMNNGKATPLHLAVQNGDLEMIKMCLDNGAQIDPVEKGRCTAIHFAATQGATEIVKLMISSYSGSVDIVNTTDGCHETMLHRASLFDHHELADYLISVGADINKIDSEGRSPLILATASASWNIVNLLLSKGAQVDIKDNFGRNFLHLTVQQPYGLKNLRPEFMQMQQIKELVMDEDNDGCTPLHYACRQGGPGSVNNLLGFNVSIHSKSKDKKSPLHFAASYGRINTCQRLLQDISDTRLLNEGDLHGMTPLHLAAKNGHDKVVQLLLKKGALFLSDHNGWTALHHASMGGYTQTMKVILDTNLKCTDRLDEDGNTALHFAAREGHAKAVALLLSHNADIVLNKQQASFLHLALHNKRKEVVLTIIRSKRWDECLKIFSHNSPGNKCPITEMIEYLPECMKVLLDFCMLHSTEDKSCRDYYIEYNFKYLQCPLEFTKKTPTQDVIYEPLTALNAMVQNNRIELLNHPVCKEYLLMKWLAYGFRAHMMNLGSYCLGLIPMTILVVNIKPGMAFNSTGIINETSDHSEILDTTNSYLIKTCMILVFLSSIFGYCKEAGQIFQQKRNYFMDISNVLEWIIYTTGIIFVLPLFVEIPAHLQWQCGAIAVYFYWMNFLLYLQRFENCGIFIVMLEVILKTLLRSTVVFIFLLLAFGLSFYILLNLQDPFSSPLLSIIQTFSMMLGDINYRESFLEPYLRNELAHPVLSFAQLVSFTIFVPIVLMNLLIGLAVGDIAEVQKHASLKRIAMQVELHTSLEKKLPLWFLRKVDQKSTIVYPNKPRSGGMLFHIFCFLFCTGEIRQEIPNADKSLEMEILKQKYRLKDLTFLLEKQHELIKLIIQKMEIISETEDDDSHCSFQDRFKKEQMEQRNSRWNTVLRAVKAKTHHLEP

[3] = biological target: T3, hTRPV1 (Homo sapiens, UniProt Q8NER1); assay: whole-cell patch-clamp, capsaicin-evoked currents in HEK293 cells expressing hTRPV1
T3 construct: gene TRPV1
T3 sequence (Q8NER1 whole entry): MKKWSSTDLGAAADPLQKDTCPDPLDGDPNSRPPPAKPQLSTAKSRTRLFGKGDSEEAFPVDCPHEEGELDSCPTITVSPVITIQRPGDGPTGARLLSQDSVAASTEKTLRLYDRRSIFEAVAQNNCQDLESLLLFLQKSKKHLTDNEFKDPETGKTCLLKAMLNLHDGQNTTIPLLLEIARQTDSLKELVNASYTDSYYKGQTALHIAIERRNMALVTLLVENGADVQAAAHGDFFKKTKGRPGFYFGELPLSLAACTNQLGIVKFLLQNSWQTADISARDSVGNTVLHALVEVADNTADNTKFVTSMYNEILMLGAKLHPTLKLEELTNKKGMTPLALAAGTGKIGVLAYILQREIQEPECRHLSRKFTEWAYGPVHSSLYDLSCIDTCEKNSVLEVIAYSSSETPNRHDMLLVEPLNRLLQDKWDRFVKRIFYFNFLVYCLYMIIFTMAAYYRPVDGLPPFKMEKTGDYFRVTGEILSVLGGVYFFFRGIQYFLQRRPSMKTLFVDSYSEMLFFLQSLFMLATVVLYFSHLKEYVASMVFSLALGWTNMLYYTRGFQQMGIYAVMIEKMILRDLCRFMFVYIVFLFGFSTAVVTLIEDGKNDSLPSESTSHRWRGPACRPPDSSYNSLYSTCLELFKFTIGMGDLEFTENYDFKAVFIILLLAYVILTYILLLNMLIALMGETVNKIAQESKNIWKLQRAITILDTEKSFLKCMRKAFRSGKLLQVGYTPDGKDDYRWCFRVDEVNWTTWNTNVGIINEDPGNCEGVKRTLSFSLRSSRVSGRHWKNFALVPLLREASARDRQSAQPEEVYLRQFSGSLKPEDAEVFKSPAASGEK

[4] = biological target: T4, rTRPV1 (Rattus norvegicus, UniProt O35433); assay: Ca2+ microfluorography
T4 construct: gene Trpv1
T4 sequence (O35433 whole entry): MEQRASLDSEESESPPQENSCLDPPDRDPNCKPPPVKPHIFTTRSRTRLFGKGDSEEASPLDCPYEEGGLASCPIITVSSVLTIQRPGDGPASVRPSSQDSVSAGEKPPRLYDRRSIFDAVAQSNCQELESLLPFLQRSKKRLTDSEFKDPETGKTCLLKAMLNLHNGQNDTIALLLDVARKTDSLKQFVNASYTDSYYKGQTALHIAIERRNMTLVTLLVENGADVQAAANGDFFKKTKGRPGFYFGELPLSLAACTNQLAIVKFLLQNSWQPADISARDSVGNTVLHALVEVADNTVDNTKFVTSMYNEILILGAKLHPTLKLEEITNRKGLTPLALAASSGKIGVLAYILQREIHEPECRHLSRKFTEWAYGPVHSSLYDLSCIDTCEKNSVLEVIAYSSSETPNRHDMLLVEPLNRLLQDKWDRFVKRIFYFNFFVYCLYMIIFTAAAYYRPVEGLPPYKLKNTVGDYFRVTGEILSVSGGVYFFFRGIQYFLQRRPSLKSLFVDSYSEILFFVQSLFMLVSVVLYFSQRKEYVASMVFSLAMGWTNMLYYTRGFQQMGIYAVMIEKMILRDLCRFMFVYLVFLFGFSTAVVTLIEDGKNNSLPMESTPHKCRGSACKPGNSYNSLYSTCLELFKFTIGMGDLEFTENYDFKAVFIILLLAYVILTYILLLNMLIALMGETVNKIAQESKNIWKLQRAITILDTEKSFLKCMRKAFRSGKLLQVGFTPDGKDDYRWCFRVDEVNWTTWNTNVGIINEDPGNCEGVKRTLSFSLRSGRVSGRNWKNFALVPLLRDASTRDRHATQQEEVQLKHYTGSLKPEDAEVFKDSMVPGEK

[5] = biological target: T2, hTRPA1; assay: whole-cell patch-clamp, AITC-evoked currents in HEK293 cells, […]

T1 sequence (Q7Z2W7 whole entry): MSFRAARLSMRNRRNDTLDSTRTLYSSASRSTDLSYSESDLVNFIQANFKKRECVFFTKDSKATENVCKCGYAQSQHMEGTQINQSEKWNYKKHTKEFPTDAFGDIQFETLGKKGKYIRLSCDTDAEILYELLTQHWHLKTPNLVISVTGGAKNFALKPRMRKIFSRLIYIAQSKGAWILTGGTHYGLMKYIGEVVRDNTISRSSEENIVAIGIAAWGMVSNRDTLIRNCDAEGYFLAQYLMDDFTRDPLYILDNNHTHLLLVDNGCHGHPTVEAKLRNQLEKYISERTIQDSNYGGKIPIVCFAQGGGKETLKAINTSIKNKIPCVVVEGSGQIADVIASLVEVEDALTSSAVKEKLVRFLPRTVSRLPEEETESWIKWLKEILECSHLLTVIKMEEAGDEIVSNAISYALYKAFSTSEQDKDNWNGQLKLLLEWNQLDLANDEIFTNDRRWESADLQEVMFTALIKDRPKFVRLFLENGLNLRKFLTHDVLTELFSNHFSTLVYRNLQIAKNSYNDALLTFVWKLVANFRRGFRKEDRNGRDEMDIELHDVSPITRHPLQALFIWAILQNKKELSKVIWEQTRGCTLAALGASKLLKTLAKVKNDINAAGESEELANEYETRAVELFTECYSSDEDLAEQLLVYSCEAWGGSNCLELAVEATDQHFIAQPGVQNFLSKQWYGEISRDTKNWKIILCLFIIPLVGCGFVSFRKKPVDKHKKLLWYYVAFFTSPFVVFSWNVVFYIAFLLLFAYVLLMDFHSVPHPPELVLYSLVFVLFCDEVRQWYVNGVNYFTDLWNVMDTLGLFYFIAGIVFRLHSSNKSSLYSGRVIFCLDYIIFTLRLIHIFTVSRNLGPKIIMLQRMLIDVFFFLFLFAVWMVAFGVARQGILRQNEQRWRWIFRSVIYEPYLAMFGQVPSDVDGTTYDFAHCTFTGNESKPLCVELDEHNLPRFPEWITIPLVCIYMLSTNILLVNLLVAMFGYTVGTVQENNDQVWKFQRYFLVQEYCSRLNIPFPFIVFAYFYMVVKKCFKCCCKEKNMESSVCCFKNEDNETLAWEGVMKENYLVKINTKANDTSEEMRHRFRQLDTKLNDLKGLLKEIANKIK

| SMILES | % [1] | inhibition at 10 µM [2] [%] | IC50 [3] [µM] | IC50 [4] [µM] | whole-cell patch-clamp, AITC-evoked currents in HEK293 cells, 5 μM [5] |
| --- | --- | --- | --- | --- | --- |
| CCCCCCCCCCCC(=O)OCC(=O)NCc1cc(OC)c(O)cc1I [AG1529, 2-((4-hydroxy-2-iodo-5-methoxybenzyl)amino)-2-oxoethyl dodecanoate] | ~ 40% | ~40 | 0.9 ± 0.5 | 0.9 ± 0.2 | – |
| CC(C)c1ccc(NC(=O)Cn2cnc3c2c(=O)n(C)c(=O)n3C)cc1 [HC030031, 1,2,3,6-Tetrahydro-1,3-dimethyl-N-[4-(1-methylethyl)phenyl]-2,6-dioxo-7H-purine-7-acetamide] | – | – | – | – | a reference TRPA1 antagonist, completely abrogated AITC-evoked ionic currents |
